{"source": "paper PMC4828312", "about": "(Journal of neurochemistry, 2016)", "key": {"recombinant TUBB3": {"target": "recombinant TUBB3 (Homo sapiens, UniProt Q13509)", "sequence (Q13509 whole entry)": "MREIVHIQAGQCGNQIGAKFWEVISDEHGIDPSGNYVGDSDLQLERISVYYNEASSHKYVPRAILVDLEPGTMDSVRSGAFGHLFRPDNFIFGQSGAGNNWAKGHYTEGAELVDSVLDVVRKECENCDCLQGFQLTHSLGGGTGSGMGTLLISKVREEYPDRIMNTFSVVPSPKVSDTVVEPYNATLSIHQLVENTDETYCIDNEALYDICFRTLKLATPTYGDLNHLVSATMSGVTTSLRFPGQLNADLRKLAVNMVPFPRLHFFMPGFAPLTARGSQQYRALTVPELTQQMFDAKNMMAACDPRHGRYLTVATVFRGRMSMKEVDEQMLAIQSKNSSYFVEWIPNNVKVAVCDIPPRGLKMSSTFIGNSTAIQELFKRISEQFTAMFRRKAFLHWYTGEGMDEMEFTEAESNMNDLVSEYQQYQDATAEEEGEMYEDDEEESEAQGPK", "experiment": "Surface plasmon resonance", "type": "binding", "details": "peptides injected at 10 nM – 500 µM; three independent experiments; Fig. 2D"}, "CXCR4": {"tested_on": "CXCR4", "details": "cited from earlier work"}, "cortical neurons [1]": {"tested_on": "cortical neurons", "experiment": "Length of neuronal processes", "type": "cell-based, rat", "details": "gp120s (all 5 nM) in combination with Helix-A peptide or Helix-A nano (5 µM each), 24 hr; three independent experiments"}, "[2]": {"target": "assembled MTs (containing ~25% of TUBB3)", "experiment": "Surface plasmon resonance", "type": "binding, Porcine", "details": "peptides injected at 10 nM – 500 µM; three independent experiments; Fig. 2D"}, "primary cortical neurons": {"tested_on": "primary cortical neurons", "experiment": "Cell viability, Hoechst/PI co-staining", "type": "cell-based, rat", "details": "gp120s in combination with Helix-A nano or Helix-A peptide, 24 hr; three separate experiments, n=200 neurons each group; Fig. 6A"}, "cortical neurons [3]": {"tested_on": "cortical neurons", "experiment": "LDH release", "type": "cell-based, rat", "details": "gp120s in combination with Helix-A nano or Helix-A peptide, 24 hr; three separate experiments; Fig. 6B"}, "tubulin dimer": {"target": "tubulin dimer", "experiment": "Surface plasmon resonance", "type": "binding, Porcine", "details": "peptides injected at 10 nM – 500 µM; three independent experiments; Fig. 2D"}}, "data": [{"molecule": "RAKWNNTLKQIASK [Helix-B]", "values": [{"measurement": "Binding of peptide to TUBB3 by SPR", "setting": "recombinant TUBB3", "value": "but not Helix-B peptide binds to TUBB3"}]}, {"molecule": "c1cc(CN2CCCNCCNCCCNCC2)ccc1CN1CCCNCCNCCCNCC1", "note": "[AMD3100]", "values": [{"measurement": "Internalization of gp120", "setting": "CXCR4; ref Bachis et al. 2003", "value": "bloked"}, {"measurement": "gp120 toxicity", "setting": "CXCR4; ref Melli et al. 2006, Meucci et al. 1998", "value": "prevents gp120 toxicity"}]}, {"molecule": "NDMVEQMHEDIISLWDQSLK [Helix-A]", "values": [{"measurement": "Prevention of gp120-mediated neurite pruning", "setting": "cortical neurons [1]", "value": "but not Helix-A peptide prevented the gp120-mediated neurite pruning"}, {"measurement": "Binding of peptide to assembled MTs by SPR", "setting": "[2]", "value": "in the higher micromole range"}, {"measurement": "Prevention of gp120-induced neuronal loss, Hoechst/PI staining", "setting": "primary cortical neurons", "value": "but not Helix-A peptide abolished all neurotoxic effects of gp120"}, {"measurement": "Prevention of gp120-induced neuronal loss, LDH release", "setting": "cortical neurons [3]", "value": "but not Helix-A peptide abolished all neurotoxic effects of gp120"}, {"measurement": "Binding of peptide to tubulin dimer by SPR", "setting": "tubulin dimer", "value": "in the higher micromole range"}]}]}
